Test results reported in patent US9527853B2, “Fused triazole derivatives as gamma secretase modulators” (Ares Trading S.A., priority 2012, dated 2016).

Key:
AβTotal = assay: Amyloidβ peptide release (AβTotal) assay, AlphaLisa on supernatant of APPswe-HEK cells; type: cell-based, human; details: 24 hours, ratio Abtot versus Ab42
Method: (§1) Amyloidβ Peptide Release (Aβ42 & AβTotal) Assay to Determine IC50 Values.
(§2) Amyloidβ peptide release (Aβ42 & AβTotal) assay are performed in 384 well microtiter plates (Perkin Elmer AlphaPlate #6008350) in a final volume of 20 μl, using supernatant coming from APPswe-HEK cells exposed to test compounds. Compounds are dissolved in and diluted in 100% DMSO and incubated with APPswe-HEK cells for 24 hours a 37° C. in 5% CO2. The supernatant from APPswe-HEK cells are mixed with antibodies: for Aβ42 detection: AlphaLisa Amyloid β 1-42 Kit (Perkin Elmer AL203L) Anti-Amyloid β1-42-specific antibody acceptor beads, biotinylated anti-Amyloid “β1-42” antibody and streptavidin (SA) donor beads diluted in AlphaLisa buffer (to the instructions of the supplier). For Aβ total detection: Custom Anti-Amyloid βtotal acceptor beads (6E10 acceptor beads), biotinylated anti-Amyloid “β1-42” antibody (Perkin Elmer AL203L) and streptavidin (SA) donor beads diluted in AlphaLisa buffer (to the instructions of the supplier). After addition of supernatant to the antibody mix, the assay is incubated 4 h and 30 minutes. AmyloidP peptide release (Aβ42 & AβTotal) is measured with a Pherastar FS (BMG) multimode reader using the alphascreen module.

Aβ42 = assay: Amyloidβ peptide release (Aβ42) assay, AlphaLisa on supernatant of APPswe-HEK cells; type: cell-based; details: Homo sapiens, 24 hours incubation with compound, read-out: Ab42 IC50 Ranges
Method: as §1, §2

Structure (SMILES)	IC50 (Aβ42) [nM]	Abtot/Ab42 selectivity ranges (AβTotal)
COc1cc(Nc2nnn3c2CCCC3c2ccc(F)cc2Cl)ccc1-n1cnc(C)c1 (centres unmarked) [Example 1, 7-(2-chloro-4-fluorophenyl)-N-(3-methoxy-4-(4-methyl-1H-imidazol-1-yl)phenyl)-4,5,6,7-tetrahydro-[1,2,3]triazolo[1,5-a]pyridin-3-amine]	150 to 500	b (b: 100 fold > selectivity ≧ 50 fold)
COc1cc(Nc2nnn3c2CCCC3c2ccccc2C(F)(F)F)ccc1-n1cnc(C)c1 (centres unmarked) [Example 2]	150 to 500	a (a: selectivity ≧ 100 fold)
Cc1cn(-c2ccc(Nc3nnn4c3CCCC4c3ccc(F)cc3Cl)cc2F)cn1 (centres unmarked) [Example 3, 7-(2-chloro-4-fluorophenyl)-N-(3-fluoro-4-(4-methyl-1H-imidazol-1-yl)phenyl)-4,5,6,7-tetrahydro-[1,2,3]triazolo[1,5-a]pyridin-3-amine]	150 to 500	b (b: 100 fold > selectivity ≧ 50 fold)
COc1cc(Nc2nnn3c2CCCC3c2ccc(Cl)cc2)ccc1-n1cnc(C)c1 (centres unmarked) [Example 4, 7-(4-chlorophenyl)-N-(3-methoxy-4-(4-methyl-1H-imidazol-1-yl)phenyl)-4,5,6,7-tetrahydro-[1,2,3]triazolo[1,5-a]pyridin-3-amine]	150 to 500	b (b: 100 fold > selectivity ≧ 50 fold)
COc1cc(Nc2nnn3c2CCCC3c2ccc(Cl)c(Cl)c2)ccc1-n1cnc(C)c1 (centres unmarked) [Example 5, 7-(3,4-dichlorophenyl)-N-(3-methoxy-4-(4-methyl-1H-imidazol-1-yl)phenyl)-4,5,6,7-tetrahydro-[1,2,3]triazolo[1,5-a]pyridin-3-amine]	150 to 500	b (b: 100 fold > selectivity ≧ 50 fold)
COc1cc(Nc2nnn3c2CCCC3c2cccc(C(F)(F)F)c2)ccc1-n1cnc(C)c1 (centres unmarked) [Example 6, N-(3-methoxy-4-(4-methyl-1H-imidazol-1-yl)phenyl)-7-(3-(trifluoromethyl)phenyl)-4,5,6,7-tetrahydro-[1,2,3]triazolo[1,5-a]pyridin-3-amine]	150 to 500	b (b: 100 fold > selectivity ≧ 50 fold)
COc1cc(Nc2nnn3c2CCCC3c2ccc(F)cc2)ccc1-n1cnc(C)c1 (centres unmarked) [Example 7, 7-(4-fluorophenyl)-N-(3-methoxy-4-(4-methyl-1H-imidazol-1-yl)phenyl)-4,5,6,7-tetrahydro-[1,2,3]triazolo[1,5-a]pyridin-3-amine]	150 to 500	b (b: 100 fold > selectivity ≧ 50 fold)
COc1cc(Nc2nnn3c2CCC3c2ccc(Cl)cc2)ccc1-n1cnc(C)c1 (centres unmarked) [Example 8, 6-(4-chlorophenyl)-N-(3-methoxy-4-(4-methyl-1H-imidazol-1-yl)phenyl)-5,6-dihydro-4H-pyrrolo[1,2-c][1,2,3]triazol-3-amine]	150 to 500	a (a: selectivity ≧ 100 fold)
Cc1cc(-c2ccc(Nc3nnn4c3CCC4c3ccc(Cl)cc3)cc2)ccn1 (centres unmarked) [Example 9]	150 to 500	a (a: selectivity ≧ 100 fold)
COc1cc(Nc2nnn3c2CCC3c2ccc(F)cc2)ccc1-n1cnc(C)c1 (centres unmarked) [Example 10, 6-(4-fluorophenyl)-N-(3-methoxy-4-(4-methyl-1H-imidazol-1-yl)phenyl)-5,6-dihydro-4H-pyrrolo[1,2-c][1,2,3]triazol-3-amine]	150 to 500	a (a: selectivity ≧ 100 fold)
COc1cc(Nc2nnn3c2CCC3c2ccccc2Cl)ccc1-n1cnc(C)c1 (centres unmarked) [Example 11, 6-(2-chlorophenyl)-N-(3-methoxy-4-(4-methyl-1H-imidazol-1-yl)phenyl)-5,6-dihydro-4H-pyrrolo[1,2-c][1,2,3]triazol-3-amine]	150 to 500	b (b: 100 fold > selectivity ≧ 50 fold)
COc1cc(NC(=O)c2nnn3c2CCCC3c2ccc(Cl)cc2)ccc1-n1cnc(C)c1 (centres unmarked) [Example 12, 7-(4-chlorophenyl)-N-(3-methoxy-4-(4-methyl-1H-imidazol-1-yl)phenyl)-4,5,6,7-tetrahydro-[1,2,3]triazolo[1,5-a]pyridine-3-carboxamide]	≤ 150	b (b: 100 fold > selectivity ≧ 50 fold)

Now from value to molecule, other results behind:

IC50 (Aβ42) [nM]	Structure (SMILES)	Abtot/Ab42 selectivity ranges (AβTotal)
150 to 500	Cc1cn(-c2ccc(NC(=O)c3nnn4c3CCCC4c3ccc(Cl)cc3)cc2C#N)cn1 (centres unmarked) [Example 13, 7-(4-chlorophenyl)-N-(3-cyano-4-(4-methyl-1H-imidazol-1-yl)phenyl)-4,5,6,7-tetrahydro-[1,2,3]triazolo[1,5-a]pyridine-3-carboxamide]	c (c: 50 fold > selectivity ≧ 10 fold)
150 to 500	Cc1cn(-c2ccc(NC(=O)c3nnn4c3CCCC4c3ccc(Cl)cc3)cc2F)cn1 (centres unmarked) [Example 14, 7-(4-chlorophenyl)-N-(3-fluoro-4-(4-methyl-1H-imidazol-1-yl)phenyl)-4,5,6,7-tetrahydro-[1,2,3]triazolo[1,5-a]pyridine-3-carboxamide]	c (c: 50 fold > selectivity ≧ 10 fold)
500 to 1000	COc1nc(NC(=O)c2nnn3c2CCCC3c2ccc(Cl)cc2)ccc1-n1cnc(C)c1 (centres unmarked) [Example 15, 7-(4-chlorophenyl)-N-(6-methoxy-5-(4-methyl-1H-imidazol-1-yl)pyridin-2-yl)-4,5,6,7-tetrahydro-[1,2,3]triazolo[1,5-a]pyridine-3-carboxamide]	c (c: 50 fold > selectivity ≧ 10 fold)
150 to 500	COc1cc(NC(=O)c2nnn3c2CCCC3c2ccc(Cl)cc2)ccc1-c1ccnc(C)c1 (centres unmarked) [Example 16, 7-(4-chlorophenyl)-N-(3-methoxy-4-(2-methylpyridin-4-yl)phenyl)-4,5,6,7-tetrahydro-[1,2,3]triazolo[1,5-a]pyridine-3-carboxamide]	c (c: 50 fold > selectivity ≧ 10 fold)
150 to 500	COc1cc(NC(=O)c2nnn3c2CCCC3c2ccc(F)cc2Cl)ccc1-n1cnc(C)c1 (centres unmarked) [Example 17, 7-(2-chloro-4-fluorophenyl)-N-(3-methoxy-4-(4-methyl-1H-imidazol-1-yl)phenyl)-4,5,6,7-tetrahydro-[1,2,3]triazolo[1,5-a]pyridine-3-carboxamide]	c (c: 50 fold > selectivity ≧ 10 fold)
150 to 500	COc1cc(NC(=O)c2nnn3c2CCCC3c2ccccc2C(F)(F)F)ccc1-n1cnc(C)c1 (centres unmarked) [Example 18, N-(3-methoxy-4-(4-methyl-1Himidazol-1-yl)phenyl)-7-(2-(trifluoromethyl)phenyl)-4,5,6,7-tetrahydro-[1,2,3]triazolo[1,5-a]pyridine-3-carboxamide]	c (c: 50 fold > selectivity ≧ 10 fold)
≤ 150	COc1cc(NC(=O)c2nnn3c2CCCC3c2ccc(Cl)c(Cl)c2)ccc1-n1cnc(C)c1 (centres unmarked) [Example 19, 7-(3,4-dichlorophenyl)-N-(3-methoxy-4-(4-methyl-1H-imidazol-1-yl)phenyl)-4,5,6,7-tetrahydro-[1,2,3]triazolo[1,5-a]pyridine-3-carboxamide]	b (b: 100 fold > selectivity ≧ 50 fold)
150 to 500	COc1cc(NC(=O)c2nnn3c2CCCC3c2ccc(F)cc2)ccc1-n1cnc(C)c1 (centres unmarked) [Example 20, 7-(4-fluorophenyl)-N-(3-methoxy-4-(4-methyl-1H-imidazol-1-yl)phenyl)-4,5,6,7-tetrahydro-[1,2,3]triazolo[1,5-a]pyridine-3-carboxamide]	b (b: 100 fold > selectivity ≧ 50 fold)
< 1000	Cc1cc(-c2ccc(NC(=O)c3nnn4c3CCCC4c3ccc(F)cc3)cc2)ccn1 (centres unmarked) [Example 21, 7-(4-fluorophenyl)-N-(4-(2-methylpyridin-4-yl)phenyl)-4,5,6,7-tetrahydro-[1,2,3]triazolo[1,5-a]pyridine-3-carboxamide]	d (d: 10 fold > selectivity)
150 to 500	COc1cc(NC(=O)c2nnn3c2CCCC3c2cccc(C(F)(F)F)c2)ccc1-n1cnc(C)c1 (centres unmarked) [Example 22, N-(3-methoxy-4-(4-methyl-1H-imidazol-1-yl)phenyl)-7-(3-(trifluoromethyl)phenyl)-4,5,6,7-tetrahydro-[1,2,3]triazolo[1,5-a]pyridine-3-carboxamide]	b (b: 100 fold > selectivity ≧ 50 fold)
≤ 150	COc1cc(NC(=O)c2nnn3c2CCC[C@@H]3c2ccc(Cl)cc2)ccc1-n1cnc(C)c1 [Example 23, (R)-7-(4-chlorophenyl)-N-(3-methoxy-4-(4-methyl-1H-imidazol-1-yl)phenyl)-4,5,6,7-tetrahydro-[1,2,3]triazolo[1,5-a]pyridine-3-carboxamide]	b (b: 100 fold > selectivity ≧ 50 fold)
150 to 500	COc1cc(NC(=O)c2nnn3c2CCC[C@H]3c2ccc(Cl)cc2)ccc1-n1cnc(C)c1 [Example 24, (S)-7-(4-chlorophenyl)-N-(3-methoxy-4-(4-methyl-1H-imidazol-1-yl)phenyl)-4,5,6,7-tetrahydro-[1,2,3]triazolo[1,5-a]pyridine-3-carboxamide]	b (b: 100 fold > selectivity ≧ 50 fold)
≤ 150	COc1cc(NC(=O)c2nnn3c2CCCC3c2ccc(C(F)(F)F)cc2)ccc1-n1cnc(C)c1 (centres unmarked) [Example 25, N-(3-methoxy-4-(4-methyl-1H-imidazol-1-yl)phenyl)-7-(4-(trifluoromethyl)phenyl)-4,5,6,7-tetrahydro-[1,2,3]triazolo[1,5-a]pyridine-3-carboxamide]	c (c: 50 fold > selectivity ≧ 10 fold)
